Laboratory results from BindingDB's records for patent US9556111 (UNIVERSITETET I OSLO, 2017).

Molecular target: A-kinase anchor protein 7 isoform gamma (Human, UniProt Q9P0M2)
Test: Binding Assay
Experimental: Stable and optimal assay conditions were determined by cross-titrating GST-AKAP18δ and biotinylated PLB using 10 μg/ml glutathione acceptor beads and 10 μg/ml streptavidin donor beads in an AlphaScreen assay. The excitation wavelength was 680 nm, with the emission wavelength being 520-560 nm. Signal intensity in each well was registered and the optimal concentration to use was chosen to be the concentration prior to the peak of the signal.

Chain of A-kinase anchor protein 7 isoform gamma (Q9P0M2 whole entry, canonical isoform): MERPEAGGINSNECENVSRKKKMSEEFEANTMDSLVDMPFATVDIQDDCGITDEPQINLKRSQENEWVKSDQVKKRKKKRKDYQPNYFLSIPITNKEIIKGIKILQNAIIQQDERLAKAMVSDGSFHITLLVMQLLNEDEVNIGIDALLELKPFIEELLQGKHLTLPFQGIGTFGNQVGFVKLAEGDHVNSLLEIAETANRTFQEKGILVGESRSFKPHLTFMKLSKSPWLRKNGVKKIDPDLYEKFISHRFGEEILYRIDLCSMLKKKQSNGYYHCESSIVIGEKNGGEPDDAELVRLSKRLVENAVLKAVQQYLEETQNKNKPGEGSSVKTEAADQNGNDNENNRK

- EC50: 5.2 µM
SMILES: Cc1ccc(NC(=O)Nc2ccc(CN(Cc3ccc(NC(=O)Nc4ccc(C)cc4)cc3)Cc3ccc(NC(=O)Nc4ccc(C)cc4)cc3)cc2)cc1 [US9556111, Table 1.20]
